Laboratory results published in BindingDB's records for patent US20160046618 (Amgen, 2016).

Each compound was assayed against Beta-secretase 1 (Homo sapiens, UniProt P56817) (assay: In Vitro Enzymatic BACE1 and BACE2 FRET Assays).
Beta-secretase 1, sequence (P56817 whole entry): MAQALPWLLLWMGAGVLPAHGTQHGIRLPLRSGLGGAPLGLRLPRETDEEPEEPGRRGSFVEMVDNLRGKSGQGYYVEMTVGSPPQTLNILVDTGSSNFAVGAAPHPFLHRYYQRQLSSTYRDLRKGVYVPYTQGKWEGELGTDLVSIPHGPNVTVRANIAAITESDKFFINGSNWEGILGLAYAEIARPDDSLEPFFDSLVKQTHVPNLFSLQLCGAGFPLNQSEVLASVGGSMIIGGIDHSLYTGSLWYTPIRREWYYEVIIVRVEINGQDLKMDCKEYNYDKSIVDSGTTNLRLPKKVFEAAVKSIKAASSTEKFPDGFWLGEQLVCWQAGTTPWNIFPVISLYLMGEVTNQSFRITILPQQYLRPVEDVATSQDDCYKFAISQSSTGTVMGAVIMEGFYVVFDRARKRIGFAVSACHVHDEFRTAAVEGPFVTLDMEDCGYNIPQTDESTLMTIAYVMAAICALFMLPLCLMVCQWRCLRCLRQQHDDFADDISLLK
Description: (§1) The cDNAs for both human recombinant BACE1 and BACE2 with C-terminal 6-His Tags were cloned into transient protein expression vectors, which were subsequently transfected into mammalian cell lines. These recombinant proteins were further purified using Ni-NTA affinity chromatography (Qiagen). The assay buffer used in these screens is 0.05 M acetate, pH 4.5, 8% DMSO final, 100 uM genapol (which is a nonionic detergent, below its Critical Micelle Concentration). […] This assay is effectively started by the addition of FRET substrate (50 nM) and the combination is incubated for one hour. The FRET assay is terminated by addition of Tris buffer, which raises the pH to neutrality, and the fluorescence is determined. The FRET substrate is a peptide with commercially available fluorophore and quencher, on opposite sides of the BACE cleavage site.
For `C#C[C@H](C)Oc1cnc(C(=O)Nc2cc(F)c(F)c([C@@]3(C)N=C(N)S[C@@]4(CF)C[C@H]43)c2)c(C)n1` [US20160046618, Example 616], the IC50 was 3.42 nM. `C#C[C@H](C)Oc1cnc(C(=O)Nc2cc(F)c(F)c([C@@]3(C)N=C(N)S[C@@]4(COC)C[C@H]43)c2)c(C)n1` [US20160046618, Example 622] showed an IC50 of 4.92 nM. `C#C[C@H](C)Oc1cnc(C(=O)Nc2ccc(F)c([C@@]3(C)N=C(N)S[C@@]4(C(F)F)C[C@@H]34)c2)c(C)c1` [US20160046618, Example 648] showed an IC50 of 43.3 nM. For `C#CCOc1cnc(C(=O)Nc2ccc(F)c([C@@]3(C)N=C(N)S[C@@]4(CF)C[C@H]43)c2)cn1` [US20160046618, Example 822], the IC50 was 0.264 nM. With `C[C@]1(c2cc(NC(=O)c3ccc(Cl)cn3)cc(F)c2F)N=C(N)S[C@@]2(C(=O)O)C[C@H]21` [US20160046618, Example 899] the IC50 was 8.89 nM. `NC1=N[C@](CF)(c2cc(Nc3nccc4nc(OCc5ncco5)cnc34)ccc2F)[C@@H]2C[C@]2(c2c[nH]nn2)S1` [US20160046618, Example 957] gave an IC50 of 0.621 nM. `C=CC(C)Oc1cnc(C(=O)Nc2ccc(F)c([C@@]3(C)N=C(N)S[C@@]4(COC)C[C@H]43)c2)cn1` (stereo not given in full) [US20160046618, Example 1063] showed an IC50 of 37 nM.

The compounds below were run against T1, Beta-secretase 2 (Homo sapiens, UniProt Q9Y5Z0) (assay: In Vitro Enzymatic BACE1 and BACE2 FRET Assays).
T1 sequence (Q9Y5Z0 whole entry): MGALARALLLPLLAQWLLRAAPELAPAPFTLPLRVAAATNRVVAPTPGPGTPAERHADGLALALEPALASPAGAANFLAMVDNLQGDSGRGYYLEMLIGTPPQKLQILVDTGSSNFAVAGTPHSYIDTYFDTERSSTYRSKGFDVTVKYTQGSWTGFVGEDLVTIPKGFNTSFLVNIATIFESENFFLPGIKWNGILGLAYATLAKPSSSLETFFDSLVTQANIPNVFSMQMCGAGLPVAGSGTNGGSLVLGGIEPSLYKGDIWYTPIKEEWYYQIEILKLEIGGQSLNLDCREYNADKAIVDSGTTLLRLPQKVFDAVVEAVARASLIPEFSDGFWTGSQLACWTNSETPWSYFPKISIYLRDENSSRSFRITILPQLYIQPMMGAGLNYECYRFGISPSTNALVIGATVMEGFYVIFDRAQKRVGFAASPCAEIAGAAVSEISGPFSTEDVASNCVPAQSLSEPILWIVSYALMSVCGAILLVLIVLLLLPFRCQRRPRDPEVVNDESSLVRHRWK
Description: as §1
Compound `NC1=N[C@](CF)(c2cc(Nc3ncnc4cc(Cl)cnc34)ccc2F)[C@H]2C[C@@H]2S1` [US20160046618, Example 39] has an IC50 of 27.8 nM. `Cc1cc(C#N)cnc1C(=O)Nc1cc(F)c(F)c([C@@]2(CF)N=C(N)S[C@@]3(C(F)F)C[C@@H]23)c1` [US20160046618, Example 94] gave an IC50 of under 2.03 nM. `C#C[C@H](C)Oc1cnc(C(=O)Nc2cc(F)c(F)c([C@@]3(C)N=C(N)S[C@@]4(CF)C[C@H]43)c2)c(C)n1` [US20160046618, Example 616] was tested, and the IC50 was 124 nM. Work on `C#C[C@H](C)Oc1cnc(C(=O)Nc2cc(F)c(F)c([C@@]3(C)N=C(N)S[C@@]4(COC)C[C@H]43)c2)c(C)n1` [US20160046618, Example 622] yielded an IC50 of 225 nM. `C#C[C@H](C)Oc1cnc(C(=O)Nc2ccc(F)c([C@@]3(C)N=C(N)S[C@@]4(C(F)F)C[C@@H]34)c2)c(C)c1` [US20160046618, Example 648] gave an IC50 of 522 nM. Compound `C#CCOc1cnc(C(=O)Nc2ccc(F)c([C@@]3(C)N=C(N)S[C@@]4(CF)C[C@H]43)c2)cn1` [US20160046618, Example 822] has an IC50 of 14.7 nM. `C[C@]1(c2cc(NC(=O)c3ccc(Cl)cn3)cc(F)c2F)N=C(N)S[C@@]2(C(=O)O)C[C@H]21` [US20160046618, Example 899] gave an IC50 of 2.58 nM. For `NC1=N[C@](CF)(c2cc(Nc3nccc4nc(OCc5ncco5)cnc34)ccc2F)[C@@H]2C[C@]2(c2c[nH]nn2)S1` [US20160046618, Example 957], the IC50 was 5.38 nM. Work on `C=CC(C)Oc1cnc(C(=O)Nc2ccc(F)c([C@@]3(C)N=C(N)S[C@@]4(COC)C[C@H]43)c2)cn1` (stereo not given in full) [US20160046618, Example 1063] yielded an IC50 of 555 nM.

The compounds below were run against Cathepsin D (Homo sapiens, UniProt P07339) (assay: In Vitro Enzymatic Cathepsin D (Cat D) FRET Assay).
Cathepsin D, sequence (P07339 65-162 limits assumed): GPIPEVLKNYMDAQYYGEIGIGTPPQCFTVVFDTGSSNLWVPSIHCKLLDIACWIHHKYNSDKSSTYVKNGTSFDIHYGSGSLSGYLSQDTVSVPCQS
Cathepsin D, sequence (P07339 169-412 limits assumed): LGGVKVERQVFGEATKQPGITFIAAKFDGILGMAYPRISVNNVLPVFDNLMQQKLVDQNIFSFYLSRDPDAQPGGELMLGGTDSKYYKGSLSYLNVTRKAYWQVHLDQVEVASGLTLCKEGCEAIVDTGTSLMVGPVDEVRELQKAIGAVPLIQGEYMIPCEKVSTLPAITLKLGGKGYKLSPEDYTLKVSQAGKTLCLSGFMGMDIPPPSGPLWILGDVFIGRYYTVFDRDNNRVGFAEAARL
Description: Recombinant Cat D was expressed in CHO cells. The assay buffer for CathepsinD is 0.05 M citrate pH 3.5, 10% DMSO final, 5 mM CHAPS. […] The assays are effectively started by the addition of different FRET substrates (20 nM for Cat D) and the combination is incubated for one hour. The FRET assay is terminated with by addition of Tris buffer, which raises the pH to neutrality, and the fluorescence is determined. The FRET substrate is a peptide with commercially available fluorophore and quencher, on opposite sides of the BACE cleavage site. […] Proteolytic cleavage of the FRET substrate releases quenching of fluorescence (Cat D excitation 500 nm and emission 580 nm).
In the case of `NC1=N[C@](CF)(c2cc(Nc3ncnc4cc(Cl)cnc34)ccc2F)[C@H]2C[C@@H]2S1` [US20160046618, Example 39], the IC50 is reported as 1220 µM. `Cc1cc(C#N)cnc1C(=O)Nc1cc(F)c(F)c([C@@]2(CF)N=C(N)S[C@@]3(C(F)F)C[C@@H]23)c1` [US20160046618, Example 94] gave an IC50 of 559 µM. With `C#C[C@H](C)Oc1cnc(C(=O)Nc2cc(F)c(F)c([C@@]3(C)N=C(N)S[C@@]4(CF)C[C@H]43)c2)c(C)n1` [US20160046618, Example 616] the IC50 was 905 µM. Work on `C#C[C@H](C)Oc1cnc(C(=O)Nc2cc(F)c(F)c([C@@]3(C)N=C(N)S[C@@]4(COC)C[C@H]43)c2)c(C)n1` [US20160046618, Example 622] yielded an IC50 of 946 µM. For `C#C[C@H](C)Oc1cnc(C(=O)Nc2ccc(F)c([C@@]3(C)N=C(N)S[C@@]4(C(F)F)C[C@@H]34)c2)c(C)c1` [US20160046618, Example 648], the IC50 was 196 µM. `C#CCOc1cnc(C(=O)Nc2ccc(F)c([C@@]3(C)N=C(N)S[C@@]4(CF)C[C@H]43)c2)cn1` [US20160046618, Example 822] gave an IC50 of 150 µM. `C[C@]1(c2cc(NC(=O)c3ccc(Cl)cn3)cc(F)c2F)N=C(N)S[C@@]2(C(=O)O)C[C@H]21` [US20160046618, Example 899] showed an IC50 of over 400 µM. `NC1=N[C@](CF)(c2cc(Nc3nccc4nc(OCc5ncco5)cnc34)ccc2F)[C@@H]2C[C@]2(c2c[nH]nn2)S1` [US20160046618, Example 957] showed an IC50 of 1260 µM. In the case of `C=CC(C)Oc1cnc(C(=O)Nc2ccc(F)c([C@@]3(C)N=C(N)S[C@@]4(COC)C[C@H]43)c2)cn1` (stereo not given in full) [US20160046618, Example 1063], the IC50 is reported as over 400 µM.
